Assay results published in PMC6651196, “Preclinical Evaluation of Radiolabeled Peptides for PET Imaging of Glioblastoma Multiforme” (Molecules, 2019).
“Also recorded” adds a separate entry of the source. Where two headings read alike, the source gives them in different places.

How the values were obtained:
[1] = tested on: U-87 MG tumor xenografts; experiment: µPET/CT imaging
Description: (§1) SCID female mice (Harlan, Indianapolis, IN, USA) at 6–8 weeks of age were subcutaneously injected into the right flank with 5 × 10^6 U-87 MG cells mixed with Matrigel Matrix (Corning, Corning, NY, USA) at a 1:1 ratio. The tumor growth was continuously monitored by caliperation. When the tumor volume reached 100–300 mm^3 (i.e., 6–8 weeks after inoculation of cells), the mice were used for ex vivo biodistribution studies or µPET/CT imaging. The experimental animals were housed in a specific-pathogen-free animal facility. […] The number of animals was reduced as much as possible (n = 3 per group and time point) for all in vivo experiments. The tracer injection and small animal imaging were carried out under 2% isoflurane anesthesia (FORANE, Abbott Laboratories, Abbott Park, IL, USA) to minimize animal suffering and to prevent animal motion.
(§2) Experimental animals were imaged using microPET/SPECT/CT system Albira (Bruker, Billerica, Massachusetts, USA). Mice were r.o. injected with the radiolabeled tracer at a dose of 5–10 MBq (corresponding to 1–2 μg of peptide for animals injected with ^68Ga-peptides) per animal. Anesthetized animals were placed in a prone position in the Albira system before the start of imaging. Static PET/CT images were acquired over 30 min interval starting 30 and 90 minutes after injection. A 10-min PET scan (axial FOV 148 mm) was performed, followed by a double CT scan (axial FOV 65 mm, 45 kVp, 400 μA, at 400 projections). Scans were reconstructed with the Albira software (Bruker Biospin Corporation, Woodbridge, CT, USA) using the maximum likelihood expectation maximization (MLEM) and filtered back-projection (FBP) algorithms. The PMOD software (PMOD Technologies, Zurich, Switzerland) was used for the image analysis and tracer uptake quantification. Three-dimensional volume rendered images were created in VolView software (Kitware, Clifton Park, NY, USA). The data obtained by PET scan were quantified in PMOD via manually selected volumes of interest (VOIs) and expressed as standardized uptake values (SUV). Using SUVs for the tumor and brain regions the tumor to brain ratios were calculated.

[2] = tested on: U-87 MG cells; experiment: Cell uptake assay with and without excess of cold peptide; format: cell-based, human; conditions: for Accumulation in U-87 MG cells: 90 min, 37 °C
Description: Human glioblastoma multiforme U-87 MG cells (ATCC, Manassas, VA, USA) were cultured in Dulbecco’s Modified Eagle Medium (Sigma Aldrich, St. Louis, MO, USA) supplemented with 10% fetal bovine serum, 0.1 mM non-essential amino acids and 1.0 mM sodium pyruvate at 37 °C in a 5% carbon dioxide humidified incubator. The cells were subcultured and used for experiments at a confluency of 70–90%.
Cell uptake assay was performed in 24-well plates with U-87 MG cell at high confluency. The assay itself was carried out using a dedicated buffer instead of the regular cell culture media. The buffer consists of 25 mM Tris/HCl, 5.4 mM KCl, 1.8 mM CaCl2, 0.8 mM MgSO4, 5 mM glucose, 140 mM NaCl in H2O [34].
The cells were incubated with ^68Ga-labeled RGD peptides (20 µM) alone and also with excess (2 mM) of cold RGD peptide for 90 min (37 °C) in the buffer described above. The cells were rinsed with PBS, lysed in 0.1 M NaOH and measured for radioactivity in a gamma counter (PerkinElmer, Waltham, Massachusetts, USA). The uptake was calculated as the mean of the percentage of the applied dose ± standard deviation.

[3] = Partition coefficient (log P), octanol/PBS
Description: Labeled peptide was diluted with 600 μL of phosphate-buffered saline (PBS), and 50 µL of the solution was mixed in the test tube with 450 μL of PBS and 500 μL of octanol. The sample was placed on the shaker (1000 RPM) for 20 min and then centrifuged at 15,000 RPM for 1 min. Subsequently, 50 µL from both octanol and water layer were collected and measured on an automatic gamma counter (PerkinElmer, Waltham, Massachusetts, USA). Partition coefficient was calculated as the decadic logarithm of the ratio of octanol/water activity.

[4] = µPET/CT imaging; conditions: female, SCID, mouse, tumor and brain (PET volumes of interest), total radioactivity
Description: as §1, §2

[5] = Stability in the presence of competing metal (FeCl3), HPLC radiochemical purity; conditions: 37 °C
Description: 50 μL of ^68Ga-labeled peptides were mixed with 150 μL of 0.1 mM FeCl3 (Sigma Aldrich, St. Louis, MO, USA). The mixture was incubated at 37 °C and the samples for HPLC analysis to determine the radiochemical purity were taken at selected time points (30, 60 and 120 min) and directly injected on HPLC.

[6] = Stability in the presence of competing chelator (DTPA), HPLC radiochemical purity; conditions: 37 °C
Description: 50 μL of ^68Ga-labeled peptides were mixed with 150 μL of 6 mM DTPA solution (Sigma Aldrich, St. Louis, MO, USA). The mixture was then incubated at 37 °C and the samples were processed for HPLC analysis to determine the radiochemical purity were taken at selected time points (30, 60, and 120 min) and directly injected on HPLC.

[7] = Ex vivo biodistribution; conditions: mouse; for tissue to tissue ratio at 0.5 h / tissue to tissue ratio at 1.5 h: female, SCID, total radioactivity, from ex vivo biodistribution; for tissue to tissue ratio at 1.5 h: 90 min p.i.
Description: (§3) SCID female mice (Harlan, Indianapolis, IN, USA) at 6–8 weeks of age were subcutaneously injected into the right flank with 5 × 10^6 U-87 MG cells mixed with Matrigel Matrix (Corning, Corning, NY, USA) at a 1:1 ratio. The tumor growth was continuously monitored by caliperation. When the tumor volume reached 100–300 mm^3 (i.e., 6–8 weeks after inoculation of cells), the mice were used for ex vivo biodistribution studies or µPET/CT imaging. […] The number of animals was reduced as much as possible (n = 3 per group and time point) for all in vivo experiments. The tracer injection and small animal imaging were carried out under 2% isoflurane anesthesia (FORANE, Abbott Laboratories, Abbott Park, IL, USA) to minimize animal suffering and to prevent animal motion.
(§4) For ex vivo biodistribution studies, radiolabeled tracers were diluted with saline. The prepared solutions were applied retro-orbitally (r.o.) to the mice [35] at a dose of 1–2 MBq per mouse corresponding to 0.2–0.4 µg of the peptide. The mice were sacrificed by cervical dislocation 30 min and 90 min post-injection and organs of interest (blood, spleen, pancreas, stomach, intestine, kidneys, liver, heart, lungs, muscle, bone, and tumor) were collected. The samples were weighed and the radioactivity was measured by an automatic gamma counter. The accumulation of radiotracer in studied organs was expressed as a percentage of injected dose per gram of organ.

[8] = Plasma stability, HPLC radiochemical purity; conditions: human
Description: (§5) 100 μL of the labeled peptide was mixed with 400 μL of human plasma (Sigma Aldrich, St. Louis, MO, USA). This mixture was incubated at 37 °C and the samples for HPLC analysis to determine the radiochemical purity were taken at selected time points (30, 60, and 120 min). The individual samples were adjusted before the injection on HPLC—every sample was mixed with acetonitrile (Roth, Karlsruhe, Germany) and placed on the shaker (450 rpm) for 60 s and then centrifuged (20,000 RCF, 3 min), followed by removing the supernatant. Finally, the supernatant was analyzed using HPLC.

[9] = Plasma protein binding, size-exclusion spin column; conditions: human plasma, 37 °C
Description: (§6) 10 µL of the labeled peptide was mixed with 190 μL of human plasma (Sigma Aldrich, St. Louis, MO, USA), and incubated at 37 °C. Twenty-five µL of sample were collected at 30, 60, and 120 min time intervals for the determination of protein binding. The samples were separated by size-exclusion chromatography (illustra MicroSpin G-50 Column, GE Healthcare, UK) by centrifugation (2000 × g, 1 min). The eluate (protein-bound) and appropriate column (non-protein-bound) were measured on an automatic gamma counter. The percentage of plasma protein binding (PPB) was calculated as the ratio of the activity in the eluate and the activity of the whole sample (column plus the eluate). The blank determination of protein binding, i.e., incubation of the radiotracer in PBS buffer followed by separation of the sample on gel column was performed as the control step.

[10] = Stability in physiological pH (pH 7), HPLC radiochemical purity; conditions: 37 °C
Description: The peptides were labeled as described above. Subsequently, 100 μL of 1.14 M sodium acetate was added to adjust the pH to 7.0. The mixture was incubated at 37 °C and the samples for HPLC analysis to determine the radiochemical purity were taken at selected time points (30, 60, and 120 min) and directly injected on HPLC.

[11] = in vitro; conditions: human, plasma
Description: as §5

[12] = in vivo; conditions: female, SCID, mouse, total radioactivity
Description: as §1, §2

[13] = in vivo; conditions: female, SCID, mouse, total radioactivity; remark: listed apart in the source
Description: as §3, §4

[14] = tested on: U-87 MG tumor SCID mouse; conditions: in vivo
Description: as §3, §4

[15] = human, plasma
Description: as §6

[16] = mouse, in vivo
Description: as §3, §4

[17] = tested on: U-87 MG tumor SCID mouse; experiment: Ex vivo biodistribution; conditions: 90 min p.i., from ex vivo biodistribution
Description: as §3, §4

[18] = tumor and blood, Tumor to blood ratio, 30 min p.i.
[19] = tumor and blood, Tumor to blood ratio
[20] = tumor and kidney, Tumor to kidney ratio, 30 min p.i.
[21] = tumor and kidney, Tumor to kidney ratio
[22] = tumor and muscle, Tumor to muscle ratio, 30 min p.i.
[23] = tumor and muscle, Tumor to muscle ratio

SMILES	logP [3]	tissue to tissue ratio at 1.5 h [4]	% Stability in 0.1 M FeCl3 ([5]; 30 min) [%]	% Stability in 0.1 M FeCl3 ([5]; 60 min) [%]	% Stability in 0.1 M FeCl3 ([5]; 120 min) [%]	% Stability in 6 mM DTPA ([6]; 60 min) [%]	% Stability in 6 mM DTPA ([6]; 120 min) [%]	tissue to tissue ratio at 0.5 h [7, 18]	tissue to tissue ratio at 1.5 h [7, 19]	tissue to tissue ratio at 0.5 h [7, 20]	tissue to tissue ratio at 1.5 h [7, 21]	tissue to tissue ratio at 0.5 h [7, 22]	tissue to tissue ratio at 1.5 h [7, 23]	remaining at 0.5 h [8] [%]	remaining at 1 h [8] [%]	remaining at 2 h [8] [%]	Plasma Protein Binding (%) ([9]; incubation 30 min)	Plasma Protein Binding (%) ([9]; incubation 60 min)	Plasma Protein Binding (%) ([9]; incubation 120 min)	Accumulation in U-87 MG cells ([2]; normal cells, 20 µM)	other results
OC[C@H]1OC(O)[C@H](F)[C@@H](O)[C@@H]1O (stereo partly drawn) [^18F-FDG, ^18F-fluorodeoxyglucose, reference compound]																					PET/CT visualization of the tumor ([1]; mouse, in vivo): allowed clear imaging of the tumor
Cc1cn([C@H]2C[C@H]([18F])[C@@H](CO)O2)c(=O)[nH]c1=O [^18F-FLT, ^18F-fluorothymidine, reference compound]																					PET/CT visualization of the tumor ([1]; 30 and 90 min p.i.): could also be imaged
N=C(N)NCCC[C@@H]1NC(=O)[C@H](CCCCNC(=O)CN2CCN(CC(=O)O)CCN(CC(=O)O)CCN(CC(=O)O)CC2)NC(=O)[C@@H](Cc2ccccc2)NC(=O)[C@H](CC(=O)O)NC(=O)CNC1=O [^68Ga-DOTA-c(RGDfK), DOTA-c(RGDfK), metal not drawn]	-3.43 ± 0.11	4.7	97.04 ± 1.24	96.76 ± 1.21	95.83 ± 1.04	99.39 ± 0.54	99.06 ± 0.57	1.09	14.7	0.29	1.43	2.42	13.5	99.23 ± 0.18	99.14 ± 0.19	98.81 ± 0.33	2.39	2.65	3.29	lowest	Uptake in U-87 cells compared to ^68Ga-NODAGA-c(RGDyK)2 ([2]; normal cells): about 50%; % Stability in 6 mM DTPA ([6]; 30 min): 99.39 ± 0.43%; % Stability in pH 7 ([10]; 30 min): 99.60 ± 0.23%; % Stability in pH 7 ([10]; 60 min): 99.51 ± 0.13%; % Stability in pH 7 ([10]; 120 min): 99.49 ± 0.20%
CSCC[C@H](NC(=O)[C@H](CC(C)C)NC(=O)CNC(=O)[C@H](Cc1ccccc1)NC(=O)[C@H](Cc1ccccc1)NC(=O)[C@H](CCC(N)=O)NC(=O)[C@H](CCC(N)=O)NC(=O)[C@@H]1CCCN1C(=O)[C@H](CCCCN)NC(=O)[C@@H]1CCCN1C(=O)[C@H](CCCNC(=N)N)NC(=O)CN1CCN(CC(=O)O)CCN(CC(=O)O)CCN(CC(=O)O)CC1)C(N)=O [^68Ga-DOTA-substance P, DOTA-substance P, metal not drawn]																				0.3 % of the applied dose	Accumulation in U-87 MG cells ([2]; blocked with excess (2 mM) of cold peptide): 0.3 % of the applied dose; Uptake in U-87 cells compared to ^68Ga-NODAGA-c(RGDyK)2 ([2]; normal cells): about 50%; remaining at 0.5 h [11]: 98.2%; remaining at 1 h [11]: 98.2%; remaining at 2 h [11]: 98%; PET/CT visualization of the tumor ([1]; 30 and 90 min p.i., listed as 68Ga-substance P): did not visualize the tumor; also recorded: did not observe any substantial signal in tumors; tissue to tissue ratio at 1.5 h [12]: 4.25; tissue to tissue ratio at 0.5 h ([13]; Tumor to blood ratio): 0.93; tissue to tissue ratio at 1.5 h ([13]; Tumor to blood ratio): 2.84; tissue to tissue ratio at 0.5 h ([13]; Tumor to kidney ratio): 0.14; tissue to tissue ratio at 1.5 h ([13]; Tumor to kidney ratio): 0.04; tissue to tissue ratio at 0.5 h ([13]; Tumor to muscle ratio): 3.1; tissue to tissue ratio at 1.5 h ([13]; Tumor to muscle ratio): 6.45; logP: -3.03 ± 0.33; Tumor to blood ratio [14]: 2.8; Accumulation in kidneys ([14]; 1.5 h): 15 % ID/g; fraction unbound [15]: ~0.71; tissue uptake at 1.5 h ([16]; Accumulation in kidneys): 15 to 17 %ID/g; tissue uptake at 0.5 h ([16]; Tumor uptake): 2.14 %ID/g

The next lines start with results.

logP [3]	tissue to tissue ratio at 1.5 h [4]	% Stability in 0.1 M FeCl3 ([5]; 30 min) [%]	% Stability in 0.1 M FeCl3 ([5]; 60 min) [%]	% Stability in 0.1 M FeCl3 ([5]; 120 min) [%]	% Stability in 6 mM DTPA ([6]; 60 min) [%]	% Stability in 6 mM DTPA ([6]; 120 min) [%]	tissue to tissue ratio at 0.5 h [7, 18]	tissue to tissue ratio at 1.5 h [7, 19]	tissue to tissue ratio at 0.5 h [7, 20]	tissue to tissue ratio at 1.5 h [7, 21]	tissue to tissue ratio at 0.5 h [7, 22]	tissue to tissue ratio at 1.5 h [7, 23]	remaining at 0.5 h [8] [%]	remaining at 1 h [8] [%]	remaining at 2 h [8] [%]	Plasma Protein Binding (%) ([9]; incubation 30 min)	Plasma Protein Binding (%) ([9]; incubation 60 min)	Plasma Protein Binding (%) ([9]; incubation 120 min)	SMILES	Accumulation in U-87 MG cells ([2]; normal cells, 20 µM)	other results
-3.34 ± 0.13	4.14	98.66 ± 0.82	99.22 ± 0.19	99.17 ± 0.18	99.39 ± 0.54	99.06 ± 0.57	2.3	16.4	0.61	0.91	5.84	10.5	99.51 ± 0.17	99.31 ± 0.11	99.02 ± 0.33	1.74	1.89	3.40	N=C(N)NCCC[C@@H]1NC(=O)[C@H](CCCCNC(=O)CC[C@H](NC(=O)CCC(C(=O)O)N2CCN(CC(=O)O)CCN(CC(=O)O)CC2)C(=O)NCCCC[C@@H]2NC(=O)[C@@H](Cc3ccc(O)cc3)NC(=O)[C@H](CC(=O)O)NC(=O)CNC(=O)[C@H](CCCNC(=N)N)NC2=O)NC(=O)[C@@H](Cc2ccc(O)cc2)NC(=O)[C@H](CC(=O)O)NC(=O)CNC1=O (stereo partly drawn) [^68Ga-NODAGA-c(RGDyK)2, NODAGA-c(RGDyK)2, metal not drawn]	highest accumulation; also recorded: highest binding	PET/CT visualization of the tumor ([1]; 30 and 90 min p.i.): highest accumulation of radioactivity; also recorded: best tumor images; tissue uptake at 0.5 h ([7]; tumor, Tumor uptake, 30 min p.i.): 6 %ID/g; % Stability in pH 7 ([10]; 30 min): 99.83 ± 0.11%; % Stability in pH 7 ([10]; 60 min): 99.74 ± 0.18%; % Stability in pH 7 ([10]; 120 min): 99.62 ± 0.21%
-3.05 ± 0.62	4	99.24 ± 0.44	98.56 ± 0.60	98.94 ± 0.42	99.20 ± 0.37	99.23 ± 0.32	1.9	23.1	0.36	0.9	3.23	6.51	99.23 ± 0.18	99.14 ± 0.19	98.81 ± 0.33	2.74	1.31	3.21	N=C(N)NCCC[C@@H]1NC(=O)[C@H](CCCCNC(=O)CCC(C(=O)O)N2CCN(CC(=O)O)CCN(CC(=O)O)CC2)NC(=O)[C@@H](Cc2ccc(O)cc2)NC(=O)[C@H](CC(=O)O)NC(=O)CNC1=O (stereo partly drawn) [^68Ga-NODAGA-c(RGDyK), NODAGA-c(RGDyK), metal not drawn]		% Stability in 6 mM DTPA ([6]; 30 min): 99.65 ± 0.07%; Tumor to blood ratio [17]: 23.1; % Stability in pH 7 ([10]; 30 min): 99.82 ± 0.05%; % Stability in pH 7 ([10]; 60 min): 99.78 ± 0.12%; % Stability in pH 7 ([10]; 120 min): 99.72 ± 0.22%
